# Read-outs that look alike come from different tables or passages of the source.
# Legend:
# E. coli 50639799 = assay: MIC, multi-resistant clinical isolate; assay type: cell-based, Escherichia coli
# E. coli 50579417 = assay: MIC, multi-resistant clinical isolate; assay type: cell-based, Escherichia coli
# E. coli 50857972 = assay: MIC, multi-resistant clinical isolate; assay type: cell-based, Escherichia coli
# E. coli 50676002 = assay: MIC, multi-resistant clinical isolate; assay type: cell-based, Escherichia coli; conditions: E. coli 50676002
# E. faecium 50673722 = assay: MIC, multi-resistant clinical isolate; assay type: cell-based, Enterococcus faecium
# Experimental: (§1) Working solutions of the test derivatives were prepared with up to 100% DMSO and stored at −20° C. If necessary, the solutions were heated to 40-80° C. before testing to facilitate complete dissolution. Double-distilled water was used in all dilutions prepared. […] A microdilution susceptibility test was used for MIC determination according to Clinical and Laboratory Standards Institute, “Methods for Dilution Antimicrobial Sisceptibility Tests for Bacteria That Graw Aerobically”, Approved Standard M07-A9, edition 2012, with modifications as described by Igumnova et al (Bioorg Med Chem, 2016, 24 (22), 5884-5894).
# (§2) Briefly, the bacterial inoculum was adjusted to approximately 2.5-3×10^4 cells/mL in Mueller-Hinton broth (MHB, Difco Laboratories, USA), and incubated in a ratio of 1:1 with test derivatives in polystyrene 96-well flat-bottom microplates (NUNC, Roskilde, Denmark). Positive growth control (without test derivatives) and negative control (without bacteria) were included. The reference antibiotic was oxytetracycline hydrochloride (Sigma Aldrich, Saint Louis, Mo., USA). The microplates were incubated in an EnVision microplate reader (Perkin-Elmer, Turku, Finland) placed in an incubator set to 35° C. for 48 h. The MIC value was defined as the lowest concentration of derivative resulting in no bacterial growth as determined by OD600 measurement. All derivatives were tested in three parallels.
# (§3) The MIC was determined as explained above with some exceptions; working solutions of test derivatives were prepared from concentrated DMSO stocks stored at room temperature, the density of the bacterial inoculum was increased 40× to 1-1.2×10^6 cells/mL, enterococci were incubated in Brain Heart Infusion broth (BHIB, Difco Laboratories, USA), the microplates were incubated for 24 h, and the derivatives were tested in four parallels.
# E. faecium TUH50-22 = assay: MIC, multi-resistant clinical isolate; assay type: cell-based, Enterococcus faecium
# Experimental: as §1, §2, §3
# E. faecium K36-18 = assay: MIC, multi-resistant clinical isolate; assay type: cell-based, Enterococcus faecium
# Experimental: as §1, §2, §3
# E. faecium 50758899 = assay: MIC, multi-resistant clinical isolate; assay type: cell-based, Enterococcus faecium
# Experimental: as §1, §2, §3
# E. faecium 50901530 = assay: MIC, multi-resistant clinical isolate; assay type: cell-based, Enterococcus faecium
# Experimental: as §1, §2, §3
# [1] = system: panel of 30 multi-resistant clinical isolates of Gram-positive and Gram-negative bacteria; assay: MIC screening, ranges over the panel of clinical isolates; assay type: cell-based
# Experimental: as §1, §2, §3
# [2] = system: Escherichia coli ATCC 25922; assay: MIC assay, antibiotic susceptible reference strain; assay type: cell-based; conditions: Escherichia coli, ATCC25922, read-out: Antimicrobial activity (MIC) E. c
# Summary of the method: (§4)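 Broth microdilution followed CLSI M07-A9 with modifications: inoculum ~2.5-3×10^4 cells/mL in Mueller-Hinton broth, mixed 1:1 with test derivative, incubated 48 h at 35 °C. MIC was the lowest concentration giving no growth by OD600, tested in three parallels, with oxytetracycline as reference antibiotic.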
# [3] = system: Staphylococcus aureus ATCC 9144; assay: MIC assay, antibiotic susceptible reference strain; assay type: cell-based; conditions: Staphylococcus aureus, ATCC9144, read-out: Antimicrobial activity (MIC) S. a
# Summary of the method: as §4
# [4] = system: Pseudomonas aeruginosa PA01, DSM 19880 (ATCC 15692); assay: MIC assay, antibiotic susceptible reference strain; assay type: cell-based; conditions: Pseudomonas aeruginosa, read-out: Antimicrobial activity (MIC) P. a
# Summary of the method: as §4
# K. pneumoniae 50667959 = assay: MIC, multi-resistant clinical isolate; assay type: cell-based, Klebsiella pneumoniae
# Experimental: as §1, §2, §3
# K. pneumoniae K66-45 = assay: MIC, multi-resistant clinical isolate; assay type: cell-based, Klebsiella pneumoniae
# Experimental: as §1, §2, §3
# K. pneumoniae K47-25 = assay: MIC, multi-resistant clinical isolate; assay type: cell-based, Klebsiella pneumoniae; conditions: K. pneumoniae K47-25, resistant to colistin
# Experimental: as §1, §2, §3
# K. pneumoniae 50625602 = assay: MIC, multi-resistant clinical isolate; assay type: cell-based, Klebsiella pneumoniae
# Experimental: as §1, §2, §3
# K. pneumoniae 50531633 = assay: MIC, multi-resistant clinical isolate; assay type: cell-based, Klebsiella pneumoniae; conditions: K. pneumoniae 50531633, resistant to colistin
# Experimental: as §1, §2, §3
# P. aeruginosa 50692520 = assay: MIC, multi-resistant clinical isolate; assay type: cell-based, Pseudomonas aeruginosa
# Experimental: as §1, §2, §3
# P. aeruginosa K34-73 = assay: MIC, multi-resistant clinical isolate; assay type: cell-based, Pseudomonas aeruginosa; conditions: P. aeruginosa K34-73
# Experimental: as §1, §2, §3
# P. aeruginosa K34-7 = assay: MIC, multi-resistant clinical isolate; assay type: cell-based, Pseudomonas aeruginosa
# Experimental: as §1, §2, §3
# P. aeruginosa K44-24 = assay: MIC, multi-resistant clinical isolate; assay type: cell-based, Pseudomonas aeruginosa
# Experimental: as §1, §2, §3
# P. aeruginosa 50692172 = assay: MIC, multi-resistant clinical isolate; assay type: cell-based, Pseudomonas aeruginosa
# Experimental: as §1, §2, §3
# [5] = Escherichia coli, read-out: Antimicrobial activity (MIC)
# [6] = Enterococcus faecium, read-out: Antimicrobial activity (MIC)
# [7] = Klebsiella pneumoniae, read-out: Antimicrobial activity (MIC)
# [8] = Pseudomonas aeruginosa, read-out: Antimicrobial activity (MIC)
smiles,measurement,setting,value
"CC(C)(C)c1ccc(CC2(Cc3ccc(C(C)(C)C)cc3)C(=O)N(CCCCNC(=N)N)C(=O)N(CCCCNC(=N)N)C2=O)cc1 [Compound 8(i), 1,1′-(4,4′-(5,5-bis(4-tert-butylbenzyl)-2,4,6-trioxodihydropyrimidine-1,3(2H,4H)-diyl)bis(butane-4,1-diyl))diguanidine]",MIC,E. coli 50639799; [5],4 µg/mL
same,selectivity index (EC50/MIC),E. coli 50639799; RBC EC50 / MIC,(19)
same,MIC,E. coli 50579417; [5],4 µg/mL
same,selectivity index (EC50/MIC),E. coli 50579417; RBC EC50 / MIC,(19)
same,MIC,E. coli 50857972; [5],4 µg/mL
same,selectivity index (EC50/MIC),E. coli 50857972; RBC EC50 / MIC,(19)
same,MIC,E. coli 50676002; [5],4 µg/mL
same,selectivity index (EC50/MIC),E. coli 50676002; RBC EC50 / MIC,(19)
same,MIC,E. faecium 50673722; [6],2 µg/mL
same,selectivity index (EC50/MIC),E. faecium 50673722; RBC EC50 / MIC,(39)
same,MIC,"E. faecium TUH50-22; Enterococcus faecium, TUH5022, read-out: Antimicrobial activity (MIC)",2 µg/mL
same,selectivity index (EC50/MIC),E. faecium TUH50-22; RBC EC50 / MIC,(39)
same,MIC,"E. faecium K36-18; Enterococcus faecium, K3618, read-out: Antimicrobial activity (MIC)",2 µg/mL
same,selectivity index (EC50/MIC),"E. faecium K36-18; RBC EC50 / MIC, E. faecium K36-18",(39)
same,MIC,E. faecium 50758899; [6],2 µg/mL
same,selectivity index (EC50/MIC),E. faecium 50758899; RBC EC50 / MIC,(39)
same,MIC,E. faecium 50901530; [6],4 µg/mL
same,selectivity index (EC50/MIC),E. faecium 50901530; RBC EC50 / MIC,(19)
same,MIC,"[1]; Pseudomonas aeruginosa, read-out: MIC against P. aeruginosa",8 to 16 µg/mL
same,fold improvement in antimicrobial activity compared to the analogous amine barbiturate 7(i),[1]; multi-resistant clinical isolates,up to 4 fold
same,MIC,"[1]; read-out: MIC values against S. aurues, E. faecium and E. coli",2 to 4 µg/mL
same,MIC,[1]; read-out: MIC values against the Gram-negative multi-resistant clinical isolates of K. pneumoniae and A. baumanii,4 to 8 µg/mL
same,MIC,[2],2 µg/mL
same,MIC,[3],1 µg/mL
same,MIC,[4],4 µg/mL
same,MIC,K. pneumoniae 50667959; [7],16 µg/mL
same,selectivity index (EC50/MIC),K. pneumoniae 50667959; RBC EC50 / MIC,(5)
same,MIC,"K. pneumoniae K66-45; Klebsiella pneumoniae, K6645, read-out: Antimicrobial activity (MIC)",4 µg/mL
same,selectivity index (EC50/MIC),"K. pneumoniae K66-45; RBC EC50 / MIC, K. pneumoniae K66-45",(19)
same,MIC,"K. pneumoniae K47-25; Klebsiella pneumoniae, K4725, 24 h, read-out: Antimicrobial activity (MIC)",4 µg/mL
same,selectivity index (EC50/MIC),K. pneumoniae K47-25; RBC EC50 / MIC,(19)
same,MIC,K. pneumoniae 50625602; [7],4 µg/mL
same,selectivity index (EC50/MIC),K. pneumoniae 50625602; RBC EC50 / MIC,(19)
same,MIC,"K. pneumoniae 50531633; Klebsiella pneumoniae, 24 h, read-out: Antimicrobial activity (MIC)",4 µg/mL
same,selectivity index (EC50/MIC),K. pneumoniae 50531633; RBC EC50 / MIC,(19)
same,MIC,P. aeruginosa 50692520; [8],16 µg/mL
same,selectivity index (EC50/MIC),P. aeruginosa 50692520; RBC EC50 / MIC,(5)
same,MIC,"P. aeruginosa K34-73; Pseudomonas aeruginosa, K3473, read-out: Antimicrobial activity (MIC)",8 µg/mL
same,selectivity index (EC50/MIC),P. aeruginosa K34-73; RBC EC50 / MIC,(10)
same,MIC,"P. aeruginosa K34-7; Pseudomonas aeruginosa, K347, read-out: Antimicrobial activity (MIC)",16 µg/mL
same,selectivity index (EC50/MIC),"P. aeruginosa K34-7; RBC EC50 / MIC, P. aeruginosa K34-7",(5)
same,MIC,"P. aeruginosa K44-24; Pseudomonas aeruginosa, K4424, read-out: Antimicrobial activity (MIC)",16 µg/mL
same,selectivity index (EC50/MIC),P. aeruginosa K44-24; RBC EC50 / MIC,(5)
same,MIC,P. aeruginosa 50692172; [8],16 µg/mL
same,selectivity index (EC50/MIC),P. aeruginosa 50692172; RBC EC50 / MIC,(5)

# From patent publication US11072588B2, “Barbituric acid derivatives comprising cationic and lipophilic groups” (UNIVERSITETET I TROMSØ—NORGES ARKTISKE UNIVERSITET, priority 2017, dated 2021)
